Counter-ions that a name gives are not always drawn.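 A five-concentration, 48-hour dose response in 96-well plates underlies each endpoint, interpolated linearly between surrounding concentrations. GI50: concentration for 50% inhibition of growth.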 Active and inactive are the calls of the source. No stated cut-off is given here; in the data, active = GI50 up to about 1.1 µM and inactive = higher.
Tests used:
Assay in all cases: DTP human tumour cell line panel, 48 h
[1] = system: UACC-62
[2] = system: HOP-62
[3] = system: SW-620
[4] = system: SF-295
[5] = system: HT-29
[6] = system: CCRF-CEM
[7] = system: UO-31
[8] = system: EKVX
[9] = system: RPMI-8226
[10] = system: NCI-H226
[11] = system: SK-MEL-2
[12] = system: SNB-19
[13] = system: IGROV-1
[14] = system: SF-268
[15] = system: K562
[16] = system: MOLT-4
[17] = system: SF-539
[18] = system: OVCAR-4
[19] = system: NCI-H23
[20] = system: SK-OV-3

CC(C)(CCCCC(C)(C)C1NC(=O)N1)C1NC(=O)N1
GI50 [1]: > 10 µM (inactive)
GI50 [2]: > 10 µM (inactive)
GI50 [3]: > 10 µM (inactive)
GI50 [4]: > 10 µM (inactive)
GI50 [5]: > 10 µM (inactive)
GI50 [6]: > 10 µM (inactive)
GI50 [7]: 5.05 µM (inactive)
GI50 [8]: > 10 µM (inactive)
GI50 [9]: > 10 µM (inactive)
GI50 [10]: > 10 µM (inactive)
GI50 [11]: > 10 µM (inactive)
GI50 [12]: > 10 µM (inactive)
GI50 [13]: > 10 µM (inactive)
GI50 [14]: > 10 µM (inactive)
GI50 [15]: > 10 µM (inactive)
GI50 [16]: > 10 µM (inactive)
GI50 [17]: > 10 µM (inactive)
GI50 [18]: > 10 µM (inactive)
GI50 [19]: > 10 µM (inactive)
GI50 [20]: > 10 µM (inactive)

CC(C)OP(=O)(OC(C)C)c1ncn(-c2ccc([N+](=O)[O-])cc2)n1
GI50 [1]: > 100 µM (inactive)
GI50 [2]: > 100 µM (inactive)
GI50 [3]: > 100 µM (inactive)
GI50 [4]: > 100 µM (inactive)
GI50 [5]: > 100 µM (inactive)
GI50 [6]: > 100 µM (inactive)
GI50 [7]: > 100 µM (inactive)
GI50 [8]: > 100 µM (inactive)
GI50 [9]: > 100 µM (inactive)
GI50 [10]: > 100 µM (inactive)
GI50 [11]: > 100 µM (inactive)
GI50 [12]: > 100 µM (inactive)
GI50 [13]: > 100 µM (inactive)
GI50 [14]: > 100 µM (inactive)
GI50 [15]: > 100 µM (inactive)
GI50 [16]: > 100 µM (inactive)
GI50 [17]: > 100 µM (inactive)
GI50 [18]: > 100 µM (inactive)
GI50 [19]: > 100 µM (inactive)
GI50 [20]: > 100 µM (inactive)

COc1ccc(/C=C2/C(=O)N(C(=O)c3ccccc3O)N=C2C)cc1
GI50 [1]: 0.0968 µM (active)
GI50 [2]: 0.356 µM (active)
GI50 [3]: 1.44 µM (inactive)
GI50 [4]: 0.0946 µM (active)
GI50 [5]: 4.57 µM (inactive)
GI50 [6]: 0.124 µM (active)
GI50 [7]: 0.0445 µM (active)
GI50 [8]: 0.608 µM (active)
GI50 [9]: 0.895 µM (active)
GI50 [10]: 1.35 µM (inactive)
GI50 [11]: 0.327 µM (active)
GI50 [12]: 0.0484 µM (active)
GI50 [13]: 0.0234 µM (active)
GI50 [14]: 0.202 µM (active)
GI50 [15]: 0.0492 µM (active)
GI50 [16]: 0.244 µM (active)
GI50 [17]: 0.109 µM (active)
GI50 [18]: 0.655 µM (active)
GI50 [19]: 0.114 µM (active)
GI50 [20]: 0.0789 µM (active)

CC(=O)Oc1ccc(C2COc3cc(OC(C)=O)c(OC(C)=O)cc3C2)cc1 (stereo not given)
GI50 [1]: 10.1 µM (inactive)
GI50 [2]: 25.4 µM (inactive)
GI50 [3]: 17.4 µM (inactive)
GI50 [4]: 22.2 µM (inactive)
GI50 [5]: 49.3 µM (inactive)
GI50 [6]: 7.57 µM (inactive)
GI50 [7]: 22.3 µM (inactive)
GI50 [8]: 17.3 µM (inactive)
GI50 [9]: 14.9 µM (inactive)
GI50 [10]: 20.6 µM (inactive)
GI50 [11]: 14.7 µM (inactive)
GI50 [12]: 32.2 µM (inactive)
GI50 [13]: 12.8 µM (inactive)
GI50 [14]: 13.7 µM (inactive)
GI50 [15]: 16.3 µM (inactive)
GI50 [16]: 18.3 µM (inactive)
GI50 [17]: 11.7 µM (inactive)
GI50 [18]: 14.4 µM (inactive)
GI50 [19]: 16 µM (inactive)
GI50 [20]: 20.7 µM (inactive)

COc1cc2c(cc1OC)C1Cc3cc(OC)c(OC)cc3C(C2)O1
GI50 [1]: > 100 µM (inactive)
GI50 [2]: > 100 µM (inactive)
GI50 [3]: > 100 µM (inactive)
GI50 [4]: 95.7 µM (inactive)
GI50 [5]: > 100 µM (inactive)
GI50 [6]: 60.1 µM (inactive)
GI50 [7]: 83.8 µM (inactive)
GI50 [8]: > 100 µM (inactive)
GI50 [9]: 35.2 µM (inactive)
GI50 [10]: > 100 µM (inactive)
GI50 [11]: > 100 µM (inactive)
GI50 [12]: > 100 µM (inactive)
GI50 [13]: 49.8 µM (inactive)
GI50 [14]: > 100 µM (inactive)
GI50 [15]: 46.7 µM (inactive)
GI50 [16]: 49.1 µM (inactive)
GI50 [17]: > 100 µM (inactive)
GI50 [18]: > 100 µM (inactive)
GI50 [19]: > 100 µM (inactive)
GI50 [20]: > 100 µM (inactive)

CCCCn1cc[n+](-c2nc3ccccc3n2C)c1
GI50 [1]: > 100 µM (inactive)
GI50 [2]: > 100 µM (inactive)
GI50 [3]: > 100 µM (inactive)
GI50 [4]: > 100 µM (inactive)
GI50 [5]: > 100 µM (inactive)
GI50 [6]: > 100 µM (inactive)
GI50 [7]: > 100 µM (inactive)
GI50 [8]: > 100 µM (inactive)
GI50 [9]: > 100 µM (inactive)
GI50 [10]: > 100 µM (inactive)
GI50 [11]: > 100 µM (inactive)
GI50 [12]: > 100 µM (inactive)
GI50 [13]: > 100 µM (inactive)
GI50 [14]: > 10 µM (inactive)
GI50 [15]: > 100 µM (inactive)
GI50 [16]: > 100 µM (inactive)
GI50 [17]: > 100 µM (inactive)
GI50 [18]: > 100 µM (inactive)
GI50 [19]: > 100 µM (inactive)
GI50 [20]: > 100 µM (inactive)

N#CCCN(c1ccc(/C=N/c2cccc([N+](=O)[O-])c2)cc1)S(=O)(=O)c1ccccc1
GI50 [1]: > 100 µM (inactive)
GI50 [2]: > 100 µM (inactive)
GI50 [3]: > 100 µM (inactive)
GI50 [4]: > 100 µM (inactive)
GI50 [5]: > 100 µM (inactive)
GI50 [6]: > 100 µM (inactive)
GI50 [7]: 36.3 µM (inactive)
GI50 [8]: > 100 µM (inactive)
GI50 [9]: > 100 µM (inactive)
GI50 [10]: 56.9 µM (inactive)
GI50 [11]: > 100 µM (inactive)
GI50 [12]: > 100 µM (inactive)
GI50 [13]: > 100 µM (inactive)
GI50 [14]: > 100 µM (inactive)
GI50 [15]: > 100 µM (inactive)
GI50 [16]: > 100 µM (inactive)
GI50 [17]: > 100 µM (inactive)
GI50 [18]: > 100 µM (inactive)
GI50 [19]: > 100 µM (inactive)
GI50 [20]: > 100 µM (inactive)

CSCSCC(CO)NC(=O)/C(C)=C\c1c(C)[nH]c(=O)[nH]c1=O (stereo not given)
GI50 [1]: > 250 µM (inactive)
GI50 [2]: > 250 µM (inactive)
GI50 [3]: 237 µM (inactive)
GI50 [4]: > 250 µM (inactive)
GI50 [5]: > 250 µM (inactive)
GI50 [6]: > 250 µM (inactive)
GI50 [7]: > 250 µM (inactive)
GI50 [8]: > 250 µM (inactive)
GI50 [9]: > 250 µM (inactive)
GI50 [10]: > 250 µM (inactive)
GI50 [11]: > 250 µM (inactive)
GI50 [12]: 48.3 µM (inactive)
GI50 [13]: > 250 µM (inactive)
GI50 [14]: > 250 µM (inactive)
GI50 [15]: > 250 µM (inactive)
GI50 [16]: > 250 µM (inactive)
GI50 [17]: > 250 µM (inactive)
GI50 [18]: > 250 µM (inactive)
GI50 [19]: > 250 µM (inactive)
GI50 [20]: > 250 µM (inactive)

CCCc1c(-c2ccccc2)[nH]c2ccccc2c1=O
GI50 [1]: 40.5 µM (inactive)
GI50 [2]: 34.1 µM (inactive)
GI50 [3]: > 100 µM (inactive)
GI50 [4]: > 100 µM (inactive)
GI50 [5]: 22.6 µM (inactive)
GI50 [6]: 41.3 µM (inactive)
GI50 [7]: 19.2 µM (inactive)
GI50 [8]: 37.6 µM (inactive)
GI50 [9]: 54.6 µM (inactive)
GI50 [10]: > 100 µM (inactive)
GI50 [11]: 27.2 µM (inactive)
GI50 [12]: 65.2 µM (inactive)
GI50 [13]: > 100 µM (inactive)
GI50 [14]: 72.4 µM (inactive)
GI50 [15]: 20.8 µM (inactive)
GI50 [16]: > 100 µM (inactive)
GI50 [17]: 33.8 µM (inactive)
GI50 [18]: > 100 µM (inactive)
GI50 [19]: > 100 µM (inactive)
GI50 [20]: 42.3 µM (inactive)

CNCCC=C1c2ccccc2CCc2ccccc21 [NORTRIPTYLINE HYDROCHLORIDE]
GI50 [1]: 14.8 µM (inactive)
GI50 [2]: 14.7 µM (inactive)
GI50 [3]: 17.7 µM (inactive)
GI50 [4]: 14.6 µM (inactive)
GI50 [5]: 4.69 µM (inactive)
GI50 [6]: 12.5 µM (inactive)
GI50 [7]: 6.14 µM (inactive)
GI50 [8]: 15.2 µM (inactive)
GI50 [9]: 12.6 µM (inactive)
GI50 [10]: 22.1 µM (inactive)
GI50 [11]: 15.4 µM (inactive)
GI50 [12]: 16.6 µM (inactive)
GI50 [13]: 16.7 µM (inactive)
GI50 [14]: 15.5 µM (inactive)
GI50 [15]: 11.4 µM (inactive)
GI50 [16]: 12.1 µM (inactive)
GI50 [17]: 28.5 µM (inactive)
GI50 [18]: 14 µM (inactive)
GI50 [19]: 15.7 µM (inactive)
GI50 [20]: 12.6 µM (inactive)

CN1CCc2[nH]c3ccccc3c2C1
GI50 [1]: > 100 µM (inactive)
GI50 [2]: > 100 µM (inactive)
GI50 [3]: > 100 µM (inactive)
GI50 [4]: > 100 µM (inactive)
GI50 [5]: > 100 µM (inactive)
GI50 [6]: > 100 µM (inactive)
GI50 [7]: > 100 µM (inactive)
GI50 [8]: > 100 µM (inactive)
GI50 [9]: > 100 µM (inactive)
GI50 [10]: > 100 µM (inactive)
GI50 [11]: > 100 µM (inactive)
GI50 [12]: > 100 µM (inactive)
GI50 [13]: > 100 µM (inactive)
GI50 [14]: > 100 µM (inactive)
GI50 [15]: > 100 µM (inactive)
GI50 [16]: > 100 µM (inactive)
GI50 [17]: > 100 µM (inactive)
GI50 [18]: > 100 µM (inactive)
GI50 [19]: > 100 µM (inactive)
GI50 [20]: > 100 µM (inactive)

Cc1cc(C)c(NC(=O)/C=C/c2ccccc2)c(C)c1
GI50 [1]: 22.9 µM (inactive)
GI50 [2]: 38.9 µM (inactive)
GI50 [3]: > 100 µM (inactive)
GI50 [4]: 87.1 µM (inactive)
GI50 [5]: > 100 µM (inactive)
GI50 [6]: > 100 µM (inactive)
GI50 [7]: > 100 µM (inactive)
GI50 [8]: > 100 µM (inactive)
GI50 [9]: > 100 µM (inactive)
GI50 [10]: > 100 µM (inactive)
GI50 [11]: > 100 µM (inactive)
GI50 [12]: 61.9 µM (inactive)
GI50 [13]: > 100 µM (inactive)
GI50 [14]: > 100 µM (inactive)
GI50 [15]: 32.6 µM (inactive)
GI50 [16]: 7.64 µM (inactive)
GI50 [17]: 59 µM (inactive)
GI50 [18]: 94.6 µM (inactive)
GI50 [19]: > 100 µM (inactive)
GI50 [20]: > 100 µM (inactive)

Reference: ChEMBL document CHEMBL1201862, “PubChem BioAssay data set” (2004)
